We go through one substance from patent publication US6699901B1, “Dicarboxylato diammine platinum derivatives and compositions comprising them as anti-tumor agents” (priority 2000, dated 2004).

One data set concerns Kunming mice. Put plainly: Acute toxicity, IP once a day for ten days, LD50 by Bliss method. The format is in vivo. From the text:
a). Divided 50 Kunming mice randomly into 5 groups, each having 10 mice, weighing from 18 g to 22 g and being half male and half female.

In data set [1] the test system is cells of adenocarcinoma of breast. Put plainly: IC50 on human breast cancer cells. It counts as cell-based.
The test system of a further data set is human hepatic cancer H22. The following applies: for response carcinostatic rate: intravenous, daily for seven days. The method, then: The mice were divided into three groups, which were given large dose (LD50×⅕), middle dose (LD50× 1/10) and small dose (LD50× 1/20) respectively. […] Beijing's institute for drug control carried out human hepatic cancer H22 nude mice inoculation carcinostatic rate experiments. […] Every group was given 0.2 ml every time per day for seven consecutive days. The mice were put to death thirty days after inoculation.

In data set [2] the test system is human hepatic cancer cells BEL-7402. Put plainly: IC50 on human hepatic cancer cells BEL-7402. The format is cell-based.

Read-outs that look alike come from different tables or passages of the source.

The term IC50 denotes the concentration that inhibits the measured activity by half. Turning to “double 1,1-cyclobutane dicarboxylic acid diaminoplatin complex [bicycloplatin]”, the abnormal manifestations result with Kunming mice (IP 96-400 mg/kg) was “did not occur except local irritation of the high concentration”. Also, the time of death result in the data set with Kunming mice (IP 96-400 mg/kg) was “on the 3rd to 7th day”. Further, the “LD50±SE” value with Kunming mice (Kunming mice, IP once a day for ten consecutive days, Bliss method) amounted to 210.5 ± 1.14 mg/kg. The “LD50 compared with cisplatin and carboplatin” value in the data set on Kunming mice (determined under the same condition) was “significantly higher than the LD50 of cisplatin and carboplatin”. Further, the results for the IC50 in data set [1] and in data set [2] were 2.8 µg/mL and 1.3 µg/mL, respectively. The “death of nude mice” value with human hepatic cancer H22 (every group containing ten mice) is listed as “No death of nude mice was observed”. Besides, the response carcinostatic rate turned out to be 50.85% in the data set on human hepatic cancer H22 (large dose (LD50×⅕)), 57.40% in the data set on human hepatic cancer H22 (middle dose (LD50×1/10)) and 35.20% in the data set on human hepatic cancer H22 (small dose (LD50×1/20)).
